According to US20230340060A1, “NOVEL MEANS TO PREDICT AND MANIPULATE NMDA RECEPTOR-MEDIATED TOXICITY” (FundaMental Pharma GmbH, priority 2020, published 2023):

Experiments:
[1] = system: HEK293 cells; assay: Luminescent Cytotoxicity Assay (CytoTox-Glo) after transfection with GluN1 and GluN2A or GluN2B constructs; assay type: cell-based, human; settings: for cell death: HEK293 cells; for susceptibility to NMDA receptor mediated toxicity: subject carrying the variant, based on HEK293 cell death, with GluN1, 48 h after transfection
Description: HEK293 Cell Culture HEK293 cells were cultured in Dulbecco's Modified Eagle Medium (DMEM, Gibco™, 41965-039) supplement with 10% Fetal Bovine Serum (FBS, Gibco™, 10270), 1% Sodium Pyruvate (Gibco™, 11360070), 1% MEM NEAA (Gibco™, 11140035) and 0.5% Penicillin-Streptomycin (P-S; Sigma, P0781) and Passage15-25 were used for experiments.
To test the cytotoxicity of compounds according to the present invention, HEK293 cells (70-80% confluent) were transfected 24 hours after plating with expression vectors for both GluN1 and GluN2A or GluN2B, respectively (1:1; 2 μg plasmids in total per 6-cm dishes) with Lipofectamine 2000 according to manufacturer's instructions. The relative number of dead cells in the population at the indicated time points after transfection was measured with the CytoTox-Glo™ Cytotoxicity assay (Promega, G9290) according to manufacturer's instruction with minor modification. Briefly, 10% of total medium were mixed with 10 μL AAF-amino luciferin to reach a final volume at 200 μL with water, the dead cell relative luminescence units (DRLU) was measured by GloMax (Promega) in a 96 well white bottom polystyrene microplate (Corning Costar®, 3912). After all the measurements, lysis reagents have been added to the cells and 10% of lysate was used for the total cell relative luminescence units (TRLU) measurement. Cell death was calculated by the following equations: […]
In order to investigate the role of GluN2A and GluN2B in NMDA receptor mediated toxicity, the inventors have built constructs and transfected the plasmids into HEK293 cells.
In a next step, the inventors tried to assess the importance of the isoleucine and other amino acid residues in the inventive sequence motif. The inventors have built constructs containing above-mentioned mutants and transfected the plasmids into HEK293 cells.
In view of the results obtained for the GluN2A and GluN2B mutants of the inventive sequence motif in example 3, the inventors further tested the impact of naturally occurring variations in said sequence motif in the human gene pool on susceptibility towards NMDA receptor mediated toxicity. The inventors have built constructs containing above-mentioned mutants selected from the SNP database from NCBI (for GRIN2A, https://www.ncbi.nlm.nih.gov/projects/SNP/snp_ref.cgi?showRare=on&chooseRs=coding&g o=Go&locusId=2903, and for GRIN2B, https://www.ncbi.nlm.nih.gov/projects/SNP/snp_ref.cgi?showRare=on&chooseRs=coding&g o=Go&locusId=2904) and transfected the plasmids into HEK293 cells.

[2] = system: primary mouse hippocampal neurons; assay: Neuronal death assessment after rAAV-mediated expression of polypeptides; assay type: cell-based; settings: rAAV infection on DIV3, fixed on DIV17, Hoechst staining, polypeptide fused to HA tag and GPI anchor
Description: Primary mouse hippocampal were prepared and maintained as known to the skilled person. Briefly, hippocampi from P0 C57Bl/6N mice were dissociated and plated at a density of […] in Growth Medium (GM), consisting of Neurobasal A medium (Gibco™, 10888022), 2% serum free B27™ Supplement (Gibco™, 17504044), 1% rat serum (Biowest, S2150), 0.5 mM L-Glutamine (Sigma, G7513) and 0.5% P-S. Cytosine P-D-arabinofuranoside (AraC; Sigma, C1768; 2.8 μM) was added on DIV3 to prevent the proliferation of glial cells. From DIV8, half of the medium was replaced by GM without Rat serum every 48 h until being used for experiments. […]
Neurons were fixed in 4% paraformaldehyde with 4% sucrose in PBS for 15 min followed with Hoechst staining. […] Cell death is analyzed by Cell Profiler and Cell Analyzer software.
In a next step, the inventors assessed whether the inventive sequence motif on its own is sufficient to induce NMDA receptor mediated toxicity. […] Neurons were fixed on DIV17, stained with Hoechst and cell death was quantified.

[3] = combined expression with GluN1, 48 h after transfection

## GluN2A: wild type rat GluN2A (UniProtKB-Q00959) comprising canonical sequence SEQ ID NO:1
[1]; [3]
  cell death: induced cell death
[1]
  susceptibility to NMDA receptor mediated toxicity: regular susceptibility

## GluN2A-IAHA: GluN2A with substitutions I867A, I871A and H875A (SEQ ID NO:21)
[1]; [3]
  cell death: at least reduced levels of toxicity

## GluN2B: wild type rat GluN2B (UniProtKB-Q00960) comprising canonical sequence SEQ ID NO:7
[1]; [3]
  cell death: induced cell death
[1]
  susceptibility to NMDA receptor mediated toxicity: regular susceptibility

## GluN2A-13A3: GluN2A with substitutions I863A, I867A and I871A (SEQ ID NO:3)
[1]; [3]
  cell death: still show some toxic properties
[1]; combined expression with GluN1, 48 h after transfection, listed as GluN2A SEQ ID NO:3
  cell death: at least reduced levels of toxicity

## GluN2B (H873R): GluN2B with naturally occurring substitution H873R
[1]
  susceptibility to NMDA receptor mediated toxicity: decreased susceptibility

## GluN2A (I867M): GluN2A with naturally occurring substitution I867M
[1]; [3]
  cell death: also toxic
[1]
  susceptibility to NMDA receptor mediated toxicity: increased susceptibility

## GluN1: wild type rat GluN1 (UniProtKB-P35439), control when expressed alone
[1]; transfected alone (control), 48 h after transfection
  cell death: neither GFP nor GluN1 alone (both serving as controls) could induce cell death

## GluN2A (I876N): GluN2A with naturally occurring substitution I876N
[1]; [3]
  cell death: also toxic
[1]
  susceptibility to NMDA receptor mediated toxicity: increased susceptibility
[1]; listed as SEQ ID NO:6
  susceptibility to NMDA receptor mediated toxicity: significantly increased susceptibility

## GluN2A-I2A2: GluN2A with substitutions I867A and I871A (SEQ ID NO:2)
[1]; [3]
  cell death: still show some toxic properties
[1]; combined expression with GluN1, 48 h after transfection, listed as GluN2A SEQ ID NO:2
  cell death: at least reduced levels of toxicity

## SEQ ID NO:10: mutant GluN2A derived polypeptide comprising SEQ ID NO:2, fused to HA tag and GPI anchor (TGVCSDRPGLLFSISRGAYSCAHGVHIEEKKKS; GluN2A core motif mutated with 2 Ile residues mutated to Ala residues plus flanking regions)
[2]
  cell death: not able to induce cell death
[2]; listed as SEQ ID NO: 10
  cell death: greatly reduces the cell death levels to approx. the levels of untransfected control

## GluN2B-12A2: GluN2B with substitutions I868A and I872A (SEQ ID NO:21)
[1]; [3]
  cell death: essentially abrogated any toxic effect

## GluN2B-I2A2AH: GluN2B with substitutions I868A, I872A and A876H
[1]; [3]
  cell death: essentially abrogated any toxic effect

## GluN2A (S869R): GluN2A with naturally occurring substitution S869R
[1]; [3]
  cell death: also toxic
[1]
  susceptibility to NMDA receptor mediated toxicity: regular susceptibility
